Source: US20240252508A1, “Novel glucose uptake inhibitors for use in the treatment of cancer” (NOVELYEAST BV, priority 2021, published 2024)

Assays:
tps1Δ cells = assay: Growth rescue of tps1Δ strain on glucose (growth curves, 2% galactose medium); type: cell-based, S. cerevisiae; settings: 100 μM compound, 2.5 mM glucose
Protocol: Growth curves were made by measuring OD595 in a 96-well plate using the Multiskan™ FC Microplate Photometer (Thermo Fisher Scientific). Typically, for tps1Δ rescue experiments (FIG. 2b-e; FIG. 4a), cells were (pre)grown in Complete Synthetic medium containing 2% galactose.
Compounds were always added 10 min prior to glucose addition to ensure maximal interaction between the cells and compounds. Cells originating from the preculture were harvested, washed in medium without sugar, after which they were resuspended to an OD of 0.1 in 200 μL of the appropriate medium. At least three technical replicates were included per condition. OD595 was measured at 30° C. every 30 min with a 10-min shaking interval.

[1] = system: A549 lung adenocarcinoma cells; assay: A549 cell proliferation / growth inhibition; type: cell-based, human; settings: for Selected from primary screen for growth inhibition of A549 cells at 50 μM: 50 μM compound, 1 mM glucose; for Selected for having an IC50 ratio (10 mM glucose: 1 mM glucose) of A549 growth higher than WBC-A: IC50 on 10 mM vs 1 mM glucose, compared with WBC-A
Protocol: The analog library (n=203) was screened for inhibition of growth of A549 cells on RPMI medium supplemented with 1 mM glucose. DMSO (green bar) and WBC-A (orange bar) served as negative and positive control, respectively. In addition, the reference glucose transport inhibitors STF-31, Fasentin, BAY-876, WZB-117 and Cytochalasin B were included and indicated in red. Compounds were added at 50 μM concentration. Number of cells was determined by counting nuclei stained by Hoechst after three days of growth.
For both adherent A549 and MCF10Δ H-RAS^V12 cell lines, growth curves were established using the IncuCyte® ZOOM technology. By collecting phase contrast images, the IncuCyte® software provides a calculated confluency percentage from which growth curves can be deducted.
Cells were seeded at a density of 1000-1500 cells/well in a Nunc-Edge™ 96-well plate (Thermo Fisher Scientific) and growth was typically measured over 3 to 5 days. For the measurement of apoptosis induction using the MCF10Δ H-RAS^V12 cell line, the IncuCyte® Caspase-3/7 green dye was added to the medium in the recommended concentration at the beginning of the growth curve experiment. Apoptosis was detected by taking fluorescent images by excitation at 488 nm followed by IncuCyte® software analysis. Cell growth of the KMS-12-PE multiple myeloma cell line, which grows in suspension, was measured by manual cell counting. Cells were initially seeded at a density of 10^4 cells/well and incubated for 4 days after which the cell number was counted. For all cell lines, the same medium used for pregrowth was also used for the growth curve experiment, albeit with different glucose concentrations depending on the experimental design. With compound administration, the final concentration of DMSO never exceeded 0.1%. Typically, at least four technical repeats were included per condition.

Compound | Rescue of the tps1Δ strain on 2.5 mM glucose at 100 μM (tps1Δ cells) | Selected from primary screen for growth inhibition of A549 cells at 50 μM [1] | Selected for having an IC50 ratio (10 mM glucose: 1 mM glucose) of A549 growth higher than WBC-A [1]
Cc1ccc(-c2csc3ncnc(Sc4nc(C5CCCCC5)n(-c5ccccc5)n4)c23)cc1 [1A] | No | No | 
Cc1nc(SCC(=O)c2c(N)n(C)c(=O)n(C)c2=O)c2c(-c3cccs3)csc2n1 [1B] | No | No | 
c1cnc(Sc2nc(CN3CCOCC3)nc3scc(-c4cccs4)c23)nc1 [1C] | No | Yes | Lower IC50 ratio
Cc1ccc(-c2csc3ncnc(SCC(=O)N(C)Cc4ccc(C)o4)c23)cc1 [2B] | No | Yes | Lower IC50 ratio
CCN(C(=O)CSc1nc(C)nc2scc(-c3cccs3)c12)C1CCS(=O)(=O)C1 (stereo not shown) [2C] | Yes | Yes | Lower IC50 ratio
Cc1cc(C)n2nc(Sc3nc(C)nc4scc(-c5cccs5)c34)nc2n1 [3A] | No | No | 
Cc1nc(N2CCNC(=O)C2)c2c(-c3cccs3)csc2n1 [3B] | No | No | 
Cn1ccnc1Sc1nc(CN2CCOCC2)nc2scc(-c3cccs3)c12 [3C] | No | No | 
Cc1ccc(-c2csc3nc(CSc4nnc5n4CCCCC5)[nH]c(=O)c23)s1 [4A] | No | No | 
Cc1nc(SCCC(N)=O)c2c(-c3cccs3)csc2n1 [4B] | No | No | 
Cc1nc(NCC(=O)NCc2ccco2)c2c(-c3ccccc3)csc2n1 [4C] | No | Yes | Higher IC50 ratio and confirmed
COc1ccc(-c2csc3nc(C)nc(Sc4nnc(C)n4C)c23)cc1OC [5A] | No | No | 
Cc1nc(SCC(=O)N2CC(C)OC(C)C2)c2c(-c3cccs3)csc2n1 (stereo not shown) [5B] | Yes | No | 
Cc1nc(SCC(=O)Nc2ccc(OC(F)(F)F)cc2)c2c(-c3cccs3)csc2n1 [5C] | No | Yes | Lower IC50 ratio
CC(Sc1nnc2n1CCCCC2)c1nc2scc(-c3cccs3)c2c(=O)[nH]1 (stereo not shown) [6A] | No | No | 
Cc1nc(SCC(=O)NC(N)=O)c2c(-c3cccs3)csc2n1 [6B] | Yes | Yes | Lower IC50 ratio
Cc1nnc(Sc2nc(CN3CCOCC3)nc3scc(-c4cccs4)c23)n1C [6C] | No | Yes | Lower IC50 ratio
O=c1ccnc(Sc2nc(CN3CCOCC3)nc3scc(-c4cccs4)c23)[nH]1 [7A] | No | No | 
Cc1nc(SCC(=O)N(C)CCC#N)c2c(-c3cccs3)csc2n1 [7B] | Yes | No | 
Cc1nc(SCC(=O)N2CC(C)OC(C)C2)c2c(C)c(C)sc2n1 (stereo not shown) [7C] | No | Yes | Higher IC50 ratio, but false-positive

Compound | Rescue of the tps1Δ strain on 2.5 mM glucose at 100 μM (tps1Δ cells) | Selected from primary screen for growth inhibition of A549 cells at 50 μM [1] | Selected for having an IC50 ratio (10 mM glucose: 1 mM glucose) of A549 growth higher than WBC-A [1]
Cc1nnc(Sc2nc(-c3cccs3)nc3scc(-c4ccccc4)c23)n1N [8A] | No | No | 
Cc1ccc(-c2csc3ncnc(SCC(=O)NCc4ccco4)c23)cc1 [8B] | No | Yes | Lower IC50 ratio
CCn1nnnc1Sc1nc(CN2CCOCC2)nc2scc(-c3cccs3)c12 [8C] | No | Yes | Lower IC50 ratio
Cc1sc2nc(CSc3ccccc3)nc(NCc3nnc4n3CCCCC4)c2c1C [9A] | No | No | 
CCCN(CC1CC1)C(=O)CSc1nc(C)nc2scc(-c3cccs3)c12 [9B] | No | No | 
Cc1ccc(-c2csc3ncnc(SCCN4CCOCC4)c23)cc1 [9C] | No | Yes | Lower IC50 ratio
Cc1nc(Sc2nc(CSc3ccccc3)nc3sc(C)c(C)c23)n[nH]1 [10A] | No | No | 
Cc1nc(N(C)CC(=O)N2CCN(C)CC2)c2c(-c3cccs3)csc2n1 [10B] | No | No | 
Cc1nc(SCC(=O)Nc2cc(C)on2)c2c(-c3cccs3)csc2n1 [10C] | Yes | Yes | Lower IC50 ratio
Cc1sc2[nH]c(CSc3nnc(-c4cccs4)n3Cc3ccccc3)nc(=N)c2c1C [11A] | No | No | 
COc1ccccc1NC(=O)CSc1ncnc2scc(-c3ccccc3)c12 [11B] | No | No | 
Cc1nc(SCC(=O)c2ccc3c(c2)NC(=O)CO3)c2c(-c3cccs3)csc2n1 [11C] | Yes | Yes | Higher IC50 ratio and confirmed
Cc1sc2ncnc(Sc3nnc(Cc4cccs4)n3C)c2c1C [12A] | No | No | 
COc1cccc(NC(=O)CSc2ncnc3sc(C)c(-c4ccccc4)c23)c1 [12B] | No | Yes | Lower IC50 ratio
CCOC(=O)c1sc2nc(C)nc(SCC(=O)CC)c2c1C [12C] | No | No | 
Cc1nc(Sc2nnc(C)[nH]2)c2c(-c3ccccc3)csc2n1 [13A] | No | No | 
Cc1nc(SCC(=O)Nc2ccccc2-c2ccccc2)c2c(-c3cccs3)csc2n1 [13B] | No | Yes | Higher IC50 ratio, but false-positive
Cc1sc2nc(-c3cccnc3)nc(SCCO)c2c1-c1ccccc1 [13C] | No | Yes | Lower IC50 ratio
Cc1nc(SCC(N)=O)c2c(-c3cccs3)csc2n1 [14A] | Yes | No | 
Cc1nc(SC(C)C(=O)Nc2ccc(S(N)(=O)=O)cc2)c2c(-c3cccs3)csc2n1 (stereo not shown) [14B] | No | Yes | Lower IC50 ratio
